Results as given in ChEMBL document CHEMBL5724914, “Linking interpersonal differences in gut microbiota composition and drug biotransformation activity” (2024).

What was measured:
[1] = human gut metagenome, 24 h, 2 µM
[2] = (§1) The drug is tested on Z-004 corresponding to metagenome with ENA study accession number: PRJEB37062 and ENA sample accession number: ERS12561804 for biotransformation under anaerobic condition. The drug concentrations were measured over 9 timepoints collected between 0 and 24 hours of incubation by liquid-chromatography-coupled mass spectrometry (LC–MS); details: 2 µM
[3] = human gut metagenome, 24 h, 2 µM; remark: listed apart in the source
[4] = (§2) The drug is tested on WLS-220 corresponding to human gut metagenome with ENA study accession number: PRJEB37062 and ENA sample accession number: ERS12561769 for biotransformation under anaerobic condition. The drug concentrations were measured over 9 timepoints collected between 0 and 24 hours of incubation by liquid-chromatography-coupled mass spectrometry (LC–MS); details: 2 µM
[5] = human gut metagenome, 24 h, 2 µM; remark: listed apart in the source
[6] = as §2, with “Z-013” for “WLS-220”, “rabbit” for “human”, “ERS12561813” for “ERS12561769”; details: 2 µM
[7] = human gut metagenome, 24 h, 2 µM; remark: listed apart in the source
[8] = human gut metagenome, 24 h, 2 µM; remark: listed apart in the source
[9] = as §2, with “WLS-170” for “WLS-220”, “ERS12561762” for “ERS12561769”; details: 2 µM
[10] = human gut metagenome, 24 h, 2 µM; remark: listed apart in the source
[11] = as §2, with “WLS-010” for “WLS-220”, “ERS12561743” for “ERS12561769”; details: 2 µM
[12] = human gut metagenome, 24 h, 2 µM; remark: listed apart in the source
[13] = as §2, with “WLS-069” for “WLS-220”, “ERS12561748” for “ERS12561769”; details: 2 µM
[14] = as §2, with “WLS-006” for “WLS-220”, “ERS12561741” for “ERS12561769”; details: 2 µM
[15] = human gut metagenome, 24 h, 2 µM; remark: listed apart in the source
[16] = as §1, with “Z-010” for “Z-004”, “ERS12561810” for “ERS12561804”; details: 2 µM
[17] = human gut metagenome, 24 h, 2 µM; remark: listed apart in the source
[18] = human gut metagenome, 24 h, 2 µM; remark: listed apart in the source
[19] = human gut metagenome, 24 h, 2 µM; remark: listed apart in the source
[20] = human gut metagenome, 24 h, 2 µM; remark: listed apart in the source
Further: call rule not given here.

Compound | Bacterial Biotransformation [1] | Bacterial Biotransformation [2] | Bacterial Biotransformation [3] | Bacterial Biotransformation [4] | Bacterial Biotransformation [5] | Bacterial Biotransformation [6] | Bacterial Biotransformation [7] | Bacterial Biotransformation [8] | Bacterial Biotransformation [9] | Bacterial Biotransformation [10] | Bacterial Biotransformation [11] | Bacterial Biotransformation [12] | Bacterial Biotransformation [13] | Bacterial Biotransformation [14] | Bacterial Biotransformation [15] | Bacterial Biotransformation [16] | Bacterial Biotransformation [17] | Bacterial Biotransformation [18] | Bacterial Biotransformation [19] | Bacterial Biotransformation [20]
CN(C)CC(c1ccc(O)cc1)C1(O)CCCCC1.O=C(O)CCC(=O)O (stereo not given) [DESVENLAFAXINE SUCCINATE] | Compound NOT metabolized | Compound NOT metabolized | Compound NOT metabolized | Compound NOT metabolized | Compound NOT metabolized | Compound NOT metabolized | Compound NOT metabolized | Compound NOT metabolized | Compound NOT metabolized | Compound NOT metabolized | Compound NOT metabolized | Compound NOT metabolized | Compound NOT metabolized | Compound NOT metabolized | Compound NOT metabolized | Compound NOT metabolized | Compound NOT metabolized | Compound NOT metabolized | Compound NOT metabolized | Compound NOT metabolized
CN1C(C(=O)Nc2ccccn2)=C(O)c2sccc2S1(=O)=O [TENOXICAM] | Compound NOT metabolized | Compound NOT metabolized | Compound NOT metabolized | Compound NOT metabolized | Compound NOT metabolized | Compound NOT metabolized | Compound NOT metabolized | Compound NOT metabolized | Compound NOT metabolized | Compound NOT metabolized | Compound NOT metabolized | Compound NOT metabolized | Compound NOT metabolized | Compound NOT metabolized | Compound NOT metabolized | Compound NOT metabolized | Compound NOT metabolized | Compound NOT metabolized | Compound NOT metabolized | Compound NOT metabolized
CCCc1nn(C)c2c(=O)[nH]c(-c3cc(S(=O)(=O)N4CCN(C)CC4)ccc3OCC)nc12.O=C(O)CC(O)(CC(=O)O)C(=O)O [SILDENAFIL CITRATE] | Compound NOT metabolized | Compound NOT metabolized | Compound NOT metabolized | Compound NOT metabolized | Compound metabolized | Compound NOT metabolized | Compound NOT metabolized | Compound metabolized | Compound metabolized | Compound metabolized | Compound NOT metabolized | Compound NOT metabolized | Compound NOT metabolized | Compound metabolized | Compound NOT metabolized | Compound NOT metabolized | Compound NOT metabolized | Compound NOT metabolized | Compound NOT metabolized | Compound NOT metabolized
CN1CCN(C(=O)O[C@H]2c3nccnc3C(=O)N2c2ccc(Cl)cn2)CC1 [ESZOPICLONE] | Compound NOT metabolized | Compound NOT metabolized | Compound NOT metabolized | Compound NOT metabolized | Compound NOT metabolized | Compound NOT metabolized | Compound NOT metabolized | Compound NOT metabolized | Compound NOT metabolized | Compound NOT metabolized | Compound NOT metabolized | Compound NOT metabolized | Compound NOT metabolized | Compound NOT metabolized | Compound NOT metabolized | Compound NOT metabolized | Compound NOT metabolized | Compound NOT metabolized | Compound NOT metabolized | Compound NOT metabolized
OC(CCN1CCCCC1)(c1ccccc1)C1CCCCC1 (stereo not given) [TRIHEXYPHENIDYL] | Compound metabolized | Compound metabolized | Compound metabolized | Compound NOT metabolized | Compound metabolized | Compound NOT metabolized | Compound metabolized | Compound metabolized | Compound metabolized | Compound NOT metabolized | Compound NOT metabolized | Compound metabolized | Compound metabolized | Compound metabolized | Compound NOT metabolized | Compound metabolized | Compound NOT metabolized | Compound metabolized | Compound metabolized | Compound metabolized
